Data taken from paper PMC7823827, “β-Galactosidases from a Sequence-Based Metagenome: Cloning, Expression, Purification and Characterization” (Microorganisms, 2020).

System: T1, βgal5
T1 construct: gene AUR.contig-100_1620_7; GH42; N-terminal 6-His with TEV site (pET-TEV), E. coli BL21(DE3), Ni-NTA
Experiment: nitrophenol release, absorbance […] nm
Type: biochemical
Conditions: buffer Z (phosphate, KCl, MgSO4), 30 °C; 2.5-20 mM substrate; read-out: Km (mM) / ONPG

Km: 14.5 mM
SMILES: O=[N+]([O-])c1ccccc1O[C@@H]1O[C@H](CO)[C@H](O)[C@H](O)[C@H]1O [2-nitrophenyl-β-D-galactopyranoside]
